No end group written: not given here.
How the values were obtained:
[1] = system: platelets; assay: Activation of platelets by thrombin; assay type: cell-based
[2] = target: factor Xa (Homo sapiens, UniProt P00742); assay: Influence on factor Xa activity (amidolytic and clotting in factor Xa-deficient plasma); assay type: biochemical
Method: Samples (1 ml) of either KRAD-14 peptide (500 nM) or the control peptide 500 nM) were incubated with pre-activated factor Xa (100 nM) at 37° C. and the factor Xa activity measured at the beginning and at intervals up to 60 min as follows. The enzymatic activity of factor Xa was measured by the addition of 100 μl aliquots to 0.45 ml of thrombin substrate (N-benzoyl-ile-glu-gly-arg-p-nitroanilide) (0.26 mM) which was then incubated at 37° C. for exactly 10 min, before the addition of 0.45 ml of 20% (w/v) acetic acid. The absorption was measured at 405 nm against a factor Xa (100 nM) control assayed similarly. The procoagulant activity of factor Xa was measured by the addition of 100 μl of the sample to factor Xa-deficient plasma (100 μl) and […] CACl2 solution and measuring the clotting time. A factor Xa (100 nM) control was included in the assay against which comparisons were made.
Three 1 ml samples containing recombinant KRAD-14 peptide (20 (♦), 40 (▾) and 80 (▪) nM) were mixed with factor Xa (100 nM). […] The rest of the samples were incubated at 37° C. and further 100 μl samples were removed at intervals up to 40 min and measured as before. The activity was measured against a standard curve and the percentage inhibition calculated against the initial factor Xa activity. […]

[3] = target: T1, thromboplastin (Homo sapiens, UniProt P13726); assay: Effect of KRAD-14 concentration on thromboplastin inhibition (one-stage prothrombin time assay); assay type: biochemical
T1 construct: purchased Gamidor Ltd. (Oxfordshire, U.K.)
T1 sequence (P13726 33-295): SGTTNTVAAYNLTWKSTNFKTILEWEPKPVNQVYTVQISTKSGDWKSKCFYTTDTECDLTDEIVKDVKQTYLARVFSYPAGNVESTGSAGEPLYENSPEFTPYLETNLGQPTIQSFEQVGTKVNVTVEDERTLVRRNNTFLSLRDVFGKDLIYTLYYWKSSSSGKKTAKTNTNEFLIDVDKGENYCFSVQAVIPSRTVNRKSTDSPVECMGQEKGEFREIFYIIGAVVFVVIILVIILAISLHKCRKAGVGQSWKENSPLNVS
Method: The synthetic KRAD-14 peptide was reconstituted in distilled water at 1 mM. Aliquots of recombinant thromboplastin were incubated, at 37° C. with a KRAD-14 at concentration range 10-5000 nM (final concentration) for 1 min prior to assaying using the one-stage prothrombin time assay. In addition, samples of thromboplastin (10 U/ml) were incubated with synthetic KRAD-14 at concentrations ranging from 1-100 μM (final concentration) prior to assaying using the one-stage prothrombin time assay.
Aliquots of recombinant thromboplastin were incubated, at 37° C. with a KRAD-14 at concentration range 10-5000 nM (final concentration) for 1 min prior to assaying using the one-stage prothrombin time assay. The percentage inhibition was calculated as 100×([…])/Initial activity. The experiment was performed in triplicate.
Samples of thromboplastin (10 U/ml) were incubated with synthetic KRAD-14 concentration ranging 1-100 μM (final concentration) prior to assaying using the one-stage prothrombin time assay. The percentage inhibition was calculated as 100×([…])/Initial activity. The experiment was performed in triplicate.
Aliquots (1 ml) of recombinant thromboplastin (100 nM) were incubated at 37° C. with a KRAD-14 peptide at concentration range 50 (♦), 100 (▾), 200 (▪), 300 (⋄) and 500 nM (□) (final concentration). 100 μl of the each sample was removed immediately and assayed for thromboplastin activity, by means of the one-stage prothrombin time assay. The rest of the samples were incubated at 37° C. and further 100 μl samples were removed at intervals up to 40 min and measured. The percentage inhibition was calculated as 100×(Initial activity-Residual activity)/Initial activity. The data were obtained from 3 separate experiments.

[4] = target: factor V; assay: Influence on factor V procoagulant activity (factor V-deficient plasma); assay type: biochemical; settings: factor V 1 μM, 37° C., preactivated factor V deficient plasma; read-out: Kdapp, inhibition of coagulation upon pre-incubation with factor V
Method: Samples (1 ml) of either KRAD-14 peptide (500 nM) or the control peptide (500 nM) were incubated with pre-activated factor V (100 nM) at 37° C. and the factor V activity measured at the beginning and at intervals up to 60 min as follows. The procoagulant activity of factor V was measured by the addition of 100 μl of the sample to factor V-deficient plasma (100 μl) pre-activated by incubation (2 min) with thromboplastin (200 nM) in the presence of CACl2 (25 mM), and measuring the clotting time. The activity was measured against a standard curve and the percentage inhibition calculated against the initial factor V activity. The curves are typical of data from three separate experiments.
Three 1 ml samples containing recombinant KRAD-14 peptide (20 (♦) 40 (▾) and 80 (▪) nM) were mixed with factor V (1 μM). 100 μl of the each sample was removed immediately and assayed for […] by addition to factor V-deficient plasma, pre-activated by incubation (2 min) with thromboplastin (200 nM) in the presence of CaCl2 (25 mM), and measuring the clotting time. The rest of the samples were incubated at 37° C. and further 100 μl samples were removed at intervals up to 40 min and measured as before. The activity was measured against a standard curve and the percentage inhibition calculated against the initial factor V activity. The curves are typical of data from 3 separate experiments.

[5] = system: factor VII/thromboplastin; assay: Effect on activation and activity of factor VII (clotting in factor VII deficient plasma); assay type: biochemical
Method: In order to assess whether the action of KRAD-14 peptide was directed to the proteolytic activity of factor VIIa/thromboplastin or the activation of factor VII by interaction with thromboplastin, first thromboplastin (200 nM) and factor VII (200 nM) were incubated for 10 min in the presence of 25 mM CaCl2, prior to addition of KRAD-14 peptide and a further 10 min incubation. The samples were then assayed by addition to factor VII deficient plasma and measuring the clotting time. Appropriate controls devoid of KRAD-14 peptide were included in each experiment.
In order to assess whether the action of KRAD-14 peptide was directed to the proteolytic activity of factor VIIa/thromboplastin or the activation of factor VII by interaction with thromboplastin, first thromboplastin (200 nM) and factor VII (200 nM) were incubated for 10 min in the presence of 25 mM CaCl2, prior to addition of […] (500 nM) and a further 10 min incubation. In the second experiment thromboplastin, factor VII and factor Xa (100 nM) were pre-incubated for 10 min in the presence of 25 mM CaCl2, prior to addition of KRAD-14 peptide and a further 10 min incubation. The samples were then assayed by addition to factor VII deficient plasma and measuring the clotting time. […] Conversely, it was able to inhibit the activation of the pro-enzyme (inhibition=74%+8) (Table 2). […]

factor Xa, sequence (P00742 235-488 limits assumed): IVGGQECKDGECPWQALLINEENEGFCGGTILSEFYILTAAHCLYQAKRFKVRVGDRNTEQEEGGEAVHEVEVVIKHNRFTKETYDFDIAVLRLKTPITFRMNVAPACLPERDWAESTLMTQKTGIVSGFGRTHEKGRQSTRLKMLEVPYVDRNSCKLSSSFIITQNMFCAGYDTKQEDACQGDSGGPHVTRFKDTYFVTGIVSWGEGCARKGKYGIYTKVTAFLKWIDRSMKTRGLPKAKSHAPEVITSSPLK
factor Xa, sequence (P00742 41-179 limits assumed): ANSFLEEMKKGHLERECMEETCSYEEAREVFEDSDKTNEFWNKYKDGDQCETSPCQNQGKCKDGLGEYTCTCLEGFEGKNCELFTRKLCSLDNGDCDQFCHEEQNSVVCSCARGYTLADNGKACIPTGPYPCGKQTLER

KAQSKKNKHRHSTT [KRAD-14]
effect on the activation of platelets by thrombin [1]: seems to affect the activation of platelets by thrombin
effect on the amidolytic activity of factor Xa ([2]; 500 nM peptide): did not affect
Kd ([2]; factor Xa 100 nM, 37° C., factor Xa deficient plasma, read-out: Kdapp, inhibition of coagulation upon pre-incubation with factor Xa): 275 nM
lowest concentration effective in inhibiting thromboplastin ([3]; 1 min preincubation at 37° C.): 50 nM
inhibition of thromboplastin compared with the recombinant peptide (in words) ([3]; synthetic peptide): inhibitory towards thromboplastin with similar effectiveness as the recombinant peptide
Kd ([3]; thromboplastin 100 nM, KRAD-14 peptide 1-5000 nM, 1 min at 37° C., read-out: Kdapp, inhibition of thromboplastin): 37 nM
Kd [4]: 285 nM
inhibition of the activity of factor VIIa ([5]; peptide 500 nM added after pre-incubation, further 10 min, factor VII deficient plasma): 12%
inhibition of the activation of the pro-enzyme (factor VII) ([5]; thromboplastin 200 nM, factor VII 200 nM, 25 mM CaCl2, peptide 500 nM, 10 min): 74%

Reference: patent publication US6444644B1, “Anticoagulant peptide fragments derived from apolipoprotein B-100” (University College London, priority 1996, dated 2002)
